This note sets out measurements from PubChem BioAssay (NCI).

Common to all, as to experiment: growth of human tumour cells (NCI), 48 h
In assay [1] the test system is SF-539 CNS.
Assay [2] deals with U251 CNS.
Assay [3] concerns K-562 leukemia.
In assay [4] the test system is MDA-MB-231 breast.
The subject of assay [5] is UACC-62 melanoma.
In assay [6] the test system is A498 renal.
In assay [7] the test system is SW-620 colon.
For assay [8], the system named is NCI/ADR-RES ovarian.

Several values for one entry are separate records, joined by “and”; a condition that tells them apart may be missing. Equal values may be shown once.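 Step 1: Grow cells in 96-well plates. Step 2: Expose to compound for 48 hours at 5 concentrations. Step 3: Interpolate endpoints linearly; if unreached, use highest concentration. GI50 is the concentration that inhibits growth by half. TGI: concentration producing complete growth inhibition.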

On to `CCOc1cc(/C=C/C(=O)C(C(=O)/C=C/c2ccc(OC(=O)CNc3nnc(C)s3)c(OCC)c2)C(=O)CNc2nnc(C)s2)ccc1OC(=O)CNc1nnc(C)s1`, for which the GI50 in assay [1] was 1170 nM; in assay [2], 976 nM; in assay [3] it was 352 nM; in assay [4], 1990 nM; in assay [5] it was 1430 nM; in assay [6] it was 1800 nM. Further, the GI50 in assay [7] was 1180 nM; in assay [8], 3510 nM. For the same compound, the TGI in assay [1] is 3420 nM; in assay [2], 2890 nM; in assay [3], over 100000 nM; in assay [4], 6150 nM; in assay [5], 2800 nM; in assay [6], 3640 nM. Also, the results for the TGI in assay [7] and in assay [8] were 2740 nM and over 71200 nM, respectively.

For `CCOC(=O)[C@@H](C)C[C@H](Cc1ccccc1)NC(=O)c1csc([C@@H](C[C@H](C(C)C)N(C)C(=O)[C@@H](NC(=O)[C@H]2C[C@H](O)CCN2C)C(C)C)OC(C)=O)n1`, the GI50 was 4.52 nM in assay [1]; 6.14 nM in assay [2]; 2.52 nM in assay [3]; 5.65 nM in assay [4]; under 1.67 nM in assay [5]; 7.21 nM in assay [6]. The GI50 is 4.17 nM in assay [7] and 2670 nM in assay [8]. For the same compound, the TGI is 15.7 nM in assay [1]; over 16700 nM in assay [2]; over 16700 nM in assay [3]; 3240 nM in assay [4]; over 16700 nM in assay [5]; 87.9 nM in assay [6]. The TGI in assay [7] and in assay [8] was over 16700 nM each time.

For the compound `CCCCN(CC)CCCCCCCCCCN1CCCc2cc(OC)ccc21`, the GI50 in assay [1] is 3320 nM; in assay [2], 2930 nM; in assay [3], 2210 nM; in assay [4], 2260 nM; in assay [5], 2030 nM; in assay [6], 2360 nM. In addition, the figures for the GI50 in assay [7] and in assay [8] were 2230 nM and 2070 nM, respectively. Further, the TGI in assay [1] amounted to 9350 nM; in assay [2] it was 7560 nM; in assay [3], 5690 nM; in assay [4], 7040 nM; in assay [5] it was 5310 nM; in assay [6], 9540 nM. Further, the TGI was found to be 6240 nM in assay [7] and 6150 nM in assay [8].

In the case of `CN(CSc1ccc(Cl)cc1)c1ccc(CSc2ccc(Cl)cc2)cc1`, the GI50 is 2350 nM in assay [1]; 6870 nM in assay [2]; 6640 nM in assay [3]; 1800 nM in assay [4]; 3820 nM in assay [5]; 1590 nM in assay [6]. The GI50 is 3960 nM in assay [7] and 8000 nM in assay [8]. The TGI in assay [1] is 6480 nM; in assay [2], 23500 nM; in assay [3], over 100000 nM; in assay [4] it was 5900 nM; in assay [5] it was 15800 nM; in assay [6], 9610 nM. For the same compound, the TGI in assay [7] turned out to be 15900 nM; in assay [8], 30100 nM.

In the case of `NC(=N\N=C/c1ccc(Cl)cc1Cl)/C(N)=N\N=C/c1ccc(Cl)cc1Cl`, the GI50 in assay [1] is 8300 nM; in assay [2] it was 1020 nM; in assay [3] it was 63100 nM; in assay [4], 17100 nM; in assay [5], over 69200 nM; in assay [6] it was 2210 nM. The GI50 in assay [7] was over 54300 nM; in assay [8], 38700 nM. Further, the TGI was over 100000 nM in assay [1]; 19000 nM in assay [2]; over 100000 nM in assay [3]; over 100000 nM in assay [4]; over 100000 nM in assay [5]; 8370 nM in assay [6]. Besides, the TGI in assay [7] and in assay [8] was over 100000 nM in each case.

In the case of `O=C(Nc1ccc(I)cc1)c1cccc([N+](=O)[O-])c1O`, the GI50 in assay [1] is 4850 nM; in assay [2], 3390 nM; in assay [3], 2640 nM; in assay [4], 6030 nM; in assay [5], 3770 nM; in assay [6], 1650 nM. The GI50 in assay [7] is 4440 nM; in assay [8] it was 2940 nM. Besides, the TGI in assay [1] is over 100000 nM; in assay [2], over 100000 nM; in assay [3] it was over 100000 nM; in assay [4] it was over 100000 nM; in assay [5], 24000 nM; in assay [6], 6550 nM. Besides, the TGI in assay [7] and in assay [8] was over 100000 nM each time.

As for `O=C(/C=C/c1cccc(S(=O)(=O)Nc2ccccc2)c1)NO`, the GI50 in assay [1] was 696 nM and 130 nM; in assay [2] it was 597 nM and 496 nM; in assay [3], 325 nM and 59.3 nM; in assay [4], 577 nM and 216 nM; in assay [6] it was 273 nM and 305 nM; in assay [7], 227 nM and 30.8 nM. For the same compound, the TGI was 20900 nM and 23900 nM in assay [1]; 4380 nM and 10700 nM in assay [2]; over 100000 nM in assay [3]; 19900 nM and 5630 nM in assay [4]; 1530 nM and 196 nM in assay [5]; 1340 nM and 1120 nM in assay [6]. Also, the TGI is 9270 nM and > 47100 nM in assay [7]; 6510 nM in assay [8].

Consider `COc1ccc(C2CC(c3ccc4ccccc4c3)=NN2c2nc(O)c(C3=c4cc(OC)ccc4=NC3=O)s2)cc1` (configuration not stated), for which the GI50 is 741 nM in assay [1]; 32.3 nM in assay [2]; 66.2 nM in assay [3]; 40.8 nM in assay [4]; 121 nM in assay [5]; 124 nM in assay [6]. The GI50 in assay [7] was 24.9 nM; in assay [8] it was 1890 nM. Moreover, the TGI was 4340 nM in assay [1]; 97.5 nM in assay [2]; over 32300 nM in assay [3]; 201 nM in assay [4]; 368 nM in assay [5]; 300 nM in assay [6]. For the same compound, the TGI was 65.8 nM in assay [7] and over 100000 nM in assay [8].

For `CC(C)OCc1cc(CN2CCN(c3cccc(Cl)c3)CC2)c(O)c2ncccc12`, the GI50 is 471 nM in assay [1]; 423 nM in assay [2]; 349 nM in assay [3]; 611 nM in assay [4]; 333 nM in assay [5]; 871 nM in assay [6]. In addition, the results for the GI50 in assay [7] and in assay [8] were 852 nM and 203 nM, respectively. The TGI was found to be 3480 nM in assay [1]; 11900 nM in assay [2]; 10300 nM in assay [3]; 14200 nM in assay [4]; 1430 nM in assay [5]; 8250 nM in assay [6]. Besides, the results for the TGI in assay [7] and in assay [8] were 17400 nM and 10600 nM, respectively.
